In US12673947B2 (Cytosinlab Therapeutics Co., Ltd., priority 2020, dated 2026):

Legend:
[1] = molecular target: T1, FLT3 (Homo sapiens, UniProt P36888); assay: FLT3 kinase in vitro inhibitory activity experiment (Caliper mobility shift, conversion rate); type: biochemical; details: IC50 class, read-out: Enzyme activity FLT3
T1 construct: purchased Carna 08-145
T1 sequence (P36888 27-993): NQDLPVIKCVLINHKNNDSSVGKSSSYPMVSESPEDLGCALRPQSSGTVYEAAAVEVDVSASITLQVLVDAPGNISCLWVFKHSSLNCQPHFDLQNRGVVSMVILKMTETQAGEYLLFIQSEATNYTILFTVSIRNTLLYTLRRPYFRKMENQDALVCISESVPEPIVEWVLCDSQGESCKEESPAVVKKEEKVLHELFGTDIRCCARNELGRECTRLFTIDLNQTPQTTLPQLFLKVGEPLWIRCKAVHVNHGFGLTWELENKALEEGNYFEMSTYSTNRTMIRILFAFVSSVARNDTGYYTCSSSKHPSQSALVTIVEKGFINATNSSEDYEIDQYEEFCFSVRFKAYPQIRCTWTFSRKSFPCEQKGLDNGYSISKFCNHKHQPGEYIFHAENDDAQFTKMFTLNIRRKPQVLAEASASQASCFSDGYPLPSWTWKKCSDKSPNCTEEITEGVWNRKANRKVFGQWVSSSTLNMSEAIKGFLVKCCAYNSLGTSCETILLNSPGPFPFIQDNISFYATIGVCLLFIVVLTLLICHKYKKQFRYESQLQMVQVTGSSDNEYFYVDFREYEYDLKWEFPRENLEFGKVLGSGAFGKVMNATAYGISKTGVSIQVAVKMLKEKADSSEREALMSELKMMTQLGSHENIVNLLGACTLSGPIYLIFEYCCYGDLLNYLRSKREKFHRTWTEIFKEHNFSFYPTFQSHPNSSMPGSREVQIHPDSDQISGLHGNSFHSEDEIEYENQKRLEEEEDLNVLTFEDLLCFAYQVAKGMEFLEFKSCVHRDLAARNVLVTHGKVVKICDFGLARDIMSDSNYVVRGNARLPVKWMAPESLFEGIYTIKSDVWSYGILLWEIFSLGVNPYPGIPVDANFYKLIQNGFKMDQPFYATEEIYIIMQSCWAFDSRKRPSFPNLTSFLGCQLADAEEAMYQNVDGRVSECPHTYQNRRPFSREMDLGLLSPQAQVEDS
In short: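 Tested in single wells as ten 3-fold dilutions of a 1 μM initial stock. Compound and FLT3 stood 10 min at room temperature; ATP with Kinase substrate 2 was then added for 30 min at room temperature and the reaction stopped. Conversion was measured by Caliper mobility shift, and inhibition was normalised to control-well conversion.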

[2] = system: MV4;11 cells; assay: MV4;11 in vitro inhibition of proliferation assay (CellTiter-Glo, 72 hours); type: cell-based; details: Homo sapiens, MV4-11, 72 h, IC50 class, read-out: Inhibitory activity of cell proliferation MV4;11
In short: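 IC50 came from four-parameter fitting of inhibition rates, based on CellTiter-Glo luminescence after 72 hours at 37° C. Each well held 2000 MV4;11 cells grown in IMDM with 10% serum. Compounds formed a nine-point, threefold DMSO series starting at 10 uM, tested in triplicate at 0.3% final DMSO.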

IC50 [1]	IC50 [2]	Compound
≤ 10 nM	10 to 100 nM	CCc1nc2c(N)ncc(-c3ccc(N4CCC(N5CCN(C)CC5)CC4)c(C(F)F)c3)c2nc1NC1CCOCC1 [Compound 268]
≤ 10 nM	10 to 100 nM	CCc1nc2c(N)ncc(-c3ccc(N4CCC(N5CCN(CC(F)F)CC5)CC4)c(OC)c3)c2nc1NC1CCOCC1 [Compound 321]
10 to 100 nM	10 to 100 nM	CCc1nc2c(N)ncc(-c3cnn(-c4ccnc(C)n4)c3)c2nc1N[C@H]1CCOC1 [Compound 281]
≤ 10 nM	10 to 100 nM	CCc1nc2c(N)ncc(-c3cnn(C4CCN(C5CCN(C)CC5)CC4)c3)c2nc1NC1CCOC1 (stereo not drawn) [Compound 247]
≤ 10 nM	≤ 10 nM	CCc1nc2c(N)ncc(-c3cnn(-c4ccnc(C(C)(C)O)c4)c3)c2nc1N[C@@H]1CC[C@H](O)C1 [Compound 308]
≤ 10 nM	10 to 100 nM	CCc1nc2c(N)ncc(-c3ccc(N4CCC(N5CC[C@@H](NC)C5)CC4)c(OC)c3)c2nc1NC1CCOCC1 [Compound 323]
≤ 10 nM	10 to 100 nM	CCc1nc2c(N)ncc(-c3ccc(N4CCC(N5CC[C@H](NC)C5)CC4)c(OC)c3)c2nc1NC1CCOCC1 [Compound 324]
≤ 10 nM	≤ 10 nM	CCc1nc2c(N)ncc(-c3cnn(C4CCN(C5CCN(C)CC5)CC4)c3)c2nc1N[C@@H]1CC[C@H](O)C1 [Compound 249]
≤ 10 nM	10 to 100 nM	CCc1nc2c(N)ncc(-c3ccc(N4CCC(N5CCN(C)CC5)CC4C)c(OC)c3)c2nc1NC1CCOCC1 (stereo not drawn) [Compound 322]
≤ 10 nM	≤ 10 nM	CCc1nc2c(N)ncc(-c3cnn(-c4ccnnc4)c3)c2nc1N[C@@H]1CC[C@H](O)C1 [Compound 306]
≤ 10 nM	10 to 100 nM	CCc1nc2c(N)ncc(-c3ccc(N4CCC(N5CCN(C)CC5)CC4)c(OC)c3)c2nc1N[C@H]1CCOC1 [Compound 252]
10 to 100 nM	100 to 500 nM	CCc1nc2c(N)ncc(-c3cnn(-c4ccc(C5CCCCC5)cc4)c3)c2nc1N[C@@H]1CC[C@H](O)C1 [Compound 277]
≤ 10 nM	≤ 10 nM	CCc1nc2c(N)ncc(-c3cnn(C4CCN(C(CC)CC)CC4)c3)c2nc1N[C@H]1CCOC1 [Compound 226]
≤ 10 nM	10 to 100 nM	CCc1nc2c(N)ncc(-c3cnn(C4CCN(C5CCN(C(C)C)CC5)CC4)c3)c2nc1NC1CCOCC1 [Compound 236]
≤ 10 nM	≤ 10 nM	CCc1nc2c(N)ncc(-c3cnn(-c4ccn(C(C)C)c(=O)c4)c3)c2nc1N[C@@H]1CC[C@H](O)C1 [Compound 273]
≤ 10 nM	≤ 10 nM	CCc1nc2c(N)ncc(-c3cnn(C4CCN(C(C)CC)CC4)c3)c2nc1N[C@H]1CCOC1 (stereo partly drawn) [Compound 227]
≤ 10 nM	10 to 100 nM	CCc1nc2c(N)ncc(-c3ccc(N4C[C@H](C)O[C@@H](C)C4)c(OC)c3)c2nc1N[C@@H]1CC[C@H](O)C1 [Compound 267]
≤ 10 nM	10 to 100 nM	CCc1nc2c(N)ncc(-c3cnn(C4CCS(=O)(=O)CC4)c3)c2nc1N[C@@H]1CC[C@H](O)C1 [Compound 282]
≤ 10 nM	≤ 10 nM	CCc1nc2c(N)ncc(-c3cnn(-c4ccnc(F)c4)c3)c2nc1N[C@@H]1CC[C@H](O)C1 [Compound 343]
≤ 10 nM	≤ 10 nM	CCc1nc2c(N)ncc(-c3cnn(C4CCN(C5CCN(CC)CC5)CC4)c3)c2nc1N[C@@H]1CC[C@H](O)C1 [Compound 245]
≤ 10 nM	≤ 10 nM	CCc1nc2c(N)ncc(-c3cnn(-c4ncncc4C)c3)c2nc1N[C@@H]1CC[C@H](O)C1 [Compound 269, (1S,3R)-3-((5-amino-3-ethyl-8-(1-(5-methylpyrimidin-4-yl)-1H-pyrazol-4-yl)pyridino[3,4-b]pyrazin-2-yl)amino)cyclopentan-1-ol]
10 to 100 nM	10 to 100 nM	CCc1nc2c(N)ncc(-c3cnn(-c4ccc(Cl)c(C)c4)c3)c2nc1N[C@@H]1CC[C@H](O)C1 [Compound 279]
≤ 10 nM	≤ 10 nM	CCc1nc2c(N)ncc(-c3cnn(C4CCN(C)CC4)c3)c2nc1N[C@H]1CCOC1 [Compound 223]
≤ 10 nM	≤ 10 nM	CCc1nc2c(N)ncc(-c3cnn(-c4ccc(C(C)(C)O)nc4)c3)c2nc1N[C@@H]1CC[C@H](O)C1 [Compound 329]

Second part, the molecule before the results:

Compound	IC50 [1]	IC50 [2]
[2H]C([2H])([2H])N1CCN(C2CCN(c3ccc(-c4cnc(N)c5nc(CC)c(NC6CCOCC6)nc45)cc3OC)CC2)CC1 [Compound 121]	≤ 10 nM	10 to 100 nM
CCc1nc2c(N)ncc(-c3ccc(CN4CCC(N5CCN(C)CC5)CC4)c(OC)c3)c2nc1NC1CCOCC1 [Compound 44]	10 to 100 nM	> 500 nM
CCc1nc2c(N)ncc(-c3ccc(N4CCC(N5CCN(C)CC5)CC4)cc3)c2nc1NC1CCOCC1 [Compound 7]	≤ 10 nM	10 to 100 nM
CCc1nc2c(N)ncc(-c3ccc(N4CCC(N5CCN(C)CC5)CC4)c(OC)c3)c2nc1NCC1CCOCC1 [Compound 85]	≤ 10 nM	10 to 100 nM
CCc1nc2c(N)ncc(-c3ccc(N4CCC(N5CC6CCC(C5)N6)CC4)c(OC)c3)c2nc1NC1CCOCC1 [Compound 319, 8-(4-(4-(3,8-diazabicyclo[3.2.1]octane-3-yl)piperidin-1-yl)-3-methoxyphenyl)-3-ethyl-N2-(tetrahydro-2H-pyran-pyridin-4-yl)pyridino [3,4-b]pyrazine-2,5-diamine]	≤ 10 nM	10 to 100 nM
CCc1nc2c(N)ncc(-c3ccc(N4CCC(N5CCN(C)CC5)CC4)c(OC)c3)c2nc1NC1CCN(C)CC1 [Compound 66]	≤ 10 nM	10 to 100 nM
CCc1nc2c(N)ncc(-c3ccc(N4CCC(N5CCNCC5)CC4)c(OC)c3)c2nc1NC1CCOCC1 [Compound 35]	≤ 10 nM	10 to 100 nM
CCc1nc2c(N)ncc(-c3ccc(N4CCC(N5CCN(C)CC5)CC4)c(OC)c3)c2nc1NC1CCCC1 [Compound 92]	≤ 10 nM	10 to 100 nM
CCc1nc2c(N)ncc(-c3cnn(C4CCN(C5CCN(C)CC5)CC4)c3)c2nc1NC1CCC(O)C1 (stereo not drawn) [Compound 134, 3-((5-amino-3-ethyl-8-(1-(1′-methyl-[1,4′-bipiperidine]-4-yl)-1H-pyrazol-4-yl)pyridino[3,4-b]pyrazine-2-yl)amino)cyclopentan-1-ol]	≤ 10 nM	10 to 100 nM
CCc1nc2c(N)ncc(-c3cnn(C4CCN(C(=O)C(C)C)CC4)c3)c2nc1N[C@@H]1CC[C@H](O)C1 [Compound 185, 1-(4-(4-(5-amino-3-ethyl-2-(((1R,3S)-3-hydroxycyclopentyl)amino)pyridino[3,4-b]pyrazin-8-yl)-1H-pyrazol-1-yl)piperidin-1-yl)-2-methylpropyl-1-one]	≤ 10 nM	≤ 10 nM
CCc1nc2c(N)ncc(-c3cnn(CCOC)c3)c2nc1N[C@@H]1CC[C@H](O)C1 [Compound 196]	≤ 10 nM	10 to 100 nM
CCc1nc2c(N)ncc(-c3cnn(C4C[C@H]5CC[C@@H](C4)N5CC(C)C)c3)c2nc1N[C@@H]1CC[C@H](O)C1 (stereo partly drawn) [Compound 167]	≤ 10 nM	≤ 10 nM
CCc1nc2c(N)ncc(-c3cnn(C4CCN(CC)CC4)c3)c2nc1N[C@@H]1CC[C@H](O)C1 [Compound 216]	≤ 10 nM	≤ 10 nM
CCc1nc2c(N)ncc(-c3cnn(C4CCN(C5CCOCC5)CC4)c3)c2nc1N[C@@H]1CC[C@H](O)C1 [Compound 208]	≤ 10 nM	≤ 10 nM
CCc1nc2c(N)ncc(-c3ccc(N4CCC(CN5CCN(C)CC5)CC4)c(OC)c3)c2nc1NC1CCOCC1 [Compound 45, 3-ethyl-8-(3-methoxy-4-(4-((4-methylpiperazine-1-yl)methyl)piperidine-1-yl)phenyl)-N2-(tetrahydro-2H-pyran-4-yl)pyridino[3,4-b]pyrazine-2,5-diamine]	≤ 10 nM	10 to 100 nM
CCc1nc2c(N)ncc(-c3cnn(C4CCN(CC5CCNCC5)CC4)c3)c2nc1NC1CCOCC1 [Compound 157]	≤ 10 nM	10 to 100 nM
CCc1nc2c(N)ncc(-c3cnn(C4CCN(CC(F)F)CC4)c3)c2nc1N[C@@H]1CC[C@H](O)C1 [Compound 218]	≤ 10 nM	≤ 10 nM
CCc1nc2c(N)ncc(-c3cnn(C4CCN(C5CN(C)C5)CC4)c3)c2nc1N[C@@H]1CC[C@H](O)C1 [Compound 210]	≤ 10 nM	≤ 10 nM
